# In the supplement of paper PMC4862054:
# Tests used:
# Settings in all cases: incubation time: 72 h
# BT-474 [1] = test: normalised response (% of control), CellTox Green; higher = less cell death (100 = DMSO, 0 = benzethonium chloride kill control)
# Procedure, shortened: (§1)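 Compound was dispensed into 384-well plates at 5 concentrations in 10-fold steps spanning a 10,000-fold range specific to that compound. Breast cancer cell lines were added as 20 µl suspension and left for 72 h before CellTox Green fluorescence (485/520 nm) and then CellTiter-Glo luminescence, read after 10 min at room temperature. Each reported value is the normalised signal at one concentration, with 0.1 % DMSO set at 100 and a positive kill control at 0 on each plate.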
# BT-549 [2] = test: as above
# Procedure, shortened: as §1
# CAL-120 [3] = test: as above
# Procedure, shortened: as §1
# CAL-148 [4] = test: as above
# Procedure, shortened: as §1
# CAL-51 [5] = test: as above
# Procedure, shortened: as §1
# CAL-85-1 [6] = test: as above
# Procedure, shortened: as §1
# DU-4475 [7] = test: as above
# Procedure, shortened: as §1
# HCC1143 [8] = test: as above
# Procedure, shortened: as §1
# HCC1599 [9] = test: as above
# Procedure, shortened: as §1
# HCC1937 [10] = test: as above
# Procedure, shortened: as §1
# HDQ-P1 [11] = test: as above
# Procedure, shortened: as §1
# Hs578T [12] = test: as above
# Procedure, shortened: as §1
# MCF-10A [13] = test: as above
# Procedure, shortened: as §1
# MDA-MB-231 [14] = test: as above
# Procedure, shortened: as §1
# MDA-MB-436 [15] = test: as above
# Procedure, shortened: as §1
# MDA-MB-453 [16] = test: as above
# Procedure, shortened: as §1
# MDA-MB-468 [17] = test: as above
# Procedure, shortened: as §1
# MFM-223 [18] = test: as above
# Procedure, shortened: as §1
# BT-474 [19] = test: normalised response (% of control), CellTiter-Glo; higher = more viable cells (100 = DMSO, 0 = benzethonium chloride kill control)
# Procedure: (§2)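 DSRT, 72 h incubation, CellTox Green / CellTiter-Glo readout. Signal is normalised to DMSO and benzethonium chloride controls. Value is the normalised response at the highest dose.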
# BT-549 [20] = test: as above
# Procedure: as §2
# CAL-120 [21] = test: as above
# Procedure: as §2
# CAL-148 [22] = test: as above
# Procedure: as §2
# CAL-51 [23] = test: as above
# Procedure: as §2
# CAL-85-1 [24] = test: as above
# Procedure: as §2
# DU-4475 [25] = test: as above
# Procedure: as §2
# HCC1143 [26] = test: as above
# Procedure: as §2
# HCC1599 [27] = test: as above
# Procedure: as §2
# HCC1937 [28] = test: as above
# Procedure: as §2
# HDQ-P1 [29] = test: as above
# Procedure: as §2
# Hs578T [30] = test: as above
# Procedure: as §2
# MCF-10A [31] = test: as above
# Procedure: as §2
# MDA-MB-231 [32] = test: as above
# Procedure: as §2
# MDA-MB-436 [33] = test: as above
# Procedure: as §2
# MDA-MB-453 [34] = test: as above
# Procedure: as §2
# MDA-MB-468 [35] = test: as above
# Procedure: as §2
# MFM-223 [36] = test: as above
# Procedure: as §2
# SK-BR-3 = test: as above
# Procedure: as §2
smiles,measurement,setting,value
CNC(=O)c1ccc(N2C(=S)N(c3ccc(C#N)c(C(F)(F)F)c3)C(=O)C2(C)C)cc1F [Enzalutamide] (10000 nM),normalised response,BT-474 [1],101%
same,normalised response,BT-549 [2],70.1%
same,normalised response,CAL-120 [3],104%
same,normalised response,CAL-148 [4],103%
same,normalised response,CAL-51 [5],108%
same,normalised response,CAL-85-1 [6],85%
same,normalised response,DU-4475 [7],98.2%
same,normalised response,HCC1143 [8],117%
same,normalised response,HCC1599 [9],96.7%
same,normalised response,HCC1937 [10],55.2%
same,normalised response,HDQ-P1 [11],112%
same,normalised response,Hs578T [12],112%
same,normalised response,MCF-10A [13],111%
same,normalised response,MDA-MB-231 [14],107%
same,normalised response,MDA-MB-436 [15],96.1%
same,normalised response,MDA-MB-453 [16],95.5%
same,normalised response,MDA-MB-468 [17],87.5%
same,normalised response,MFM-223 [18],106%
same,normalised response,BT-474 [19],94.3%
same,normalised response,BT-549 [20],100%
same,normalised response,CAL-120 [21],97.5%
same,normalised response,CAL-148 [22],96.1%
same,normalised response,CAL-51 [23],80.3%
same,normalised response,CAL-85-1 [24],91.7%
same,normalised response,DU-4475 [25],92.6%
same,normalised response,HCC1143 [26],96.6%
same,normalised response,HCC1599 [27],102%
same,normalised response,HCC1937 [28],92.7%
same,normalised response,HDQ-P1 [29],86.5%
same,normalised response,Hs578T [30],105%
same,normalised response,MCF-10A [31],93.4%
same,normalised response,MDA-MB-231 [32],90.2%
same,normalised response,MDA-MB-436 [33],97.2%
same,normalised response,MDA-MB-453 [34],88.5%
same,normalised response,MDA-MB-468 [35],93.7%
same,normalised response,MFM-223 [36],89.3%
same,normalised response,SK-BR-3,99%
